# Values quoted from earlier work as cited in patent US20150119272A1, “DOSE-RESPONSE MEDICAL OUTCOME MODEL PREDICTOR SYSTEM AND METHOD” (ROYAL COLLEGE OF SURGEONS IN IRELAND, priority 2012, published 2015).
# Columns and labels:
# [1] = target: Bcl-(X)L (Homo sapiens, UniProt Q07817); settings: binding to Bcl-(X)L; taken from literature (Lessene et al. 2008)
# [2] = target: Mcl-1 (Homo sapiens, UniProt Q07820); settings: binding to Mcl-1; taken from literature (Lessene et al. 2008)
# Sequence of Mcl-1 (Q07820 whole entry, species assumed): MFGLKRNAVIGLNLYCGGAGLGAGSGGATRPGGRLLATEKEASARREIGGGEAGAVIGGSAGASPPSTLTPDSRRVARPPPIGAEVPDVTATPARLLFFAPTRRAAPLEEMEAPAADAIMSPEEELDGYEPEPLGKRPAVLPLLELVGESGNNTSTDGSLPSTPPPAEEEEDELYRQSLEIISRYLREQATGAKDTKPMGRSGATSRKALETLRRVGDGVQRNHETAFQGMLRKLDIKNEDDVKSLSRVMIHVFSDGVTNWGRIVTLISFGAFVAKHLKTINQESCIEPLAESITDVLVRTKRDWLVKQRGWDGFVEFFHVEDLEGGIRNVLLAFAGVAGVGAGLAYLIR
# Sequence of Bcl-(X)L (Q07817 whole entry, species assumed): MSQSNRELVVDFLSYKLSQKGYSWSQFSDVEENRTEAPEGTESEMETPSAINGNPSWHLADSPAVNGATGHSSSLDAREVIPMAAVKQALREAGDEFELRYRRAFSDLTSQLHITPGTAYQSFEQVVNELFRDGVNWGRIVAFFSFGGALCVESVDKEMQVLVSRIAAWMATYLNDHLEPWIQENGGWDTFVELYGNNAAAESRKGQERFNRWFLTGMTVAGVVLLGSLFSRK
structure (smiles),measurement,setting,value
Cc1cc2c(C(C)C)c(O)c(O)c(C=O)c2c(O)c1-c1c(C)cc2c(C(C)C)c(O)c(O)c(C=O)c2c1O [Gossypol],Kd,[1],660 nM
same,Kd,[2],25 nM
